These results are taken from US8357504B2, “Method and kit for the microbiological determination of vitamins in substance mixtures” (IFP Privates Institut fur Produktqualitat GmbH, priority 2004, dated 2013).

Assay [1] relates to Lactobacillus plantarum (ATCC 8014). The following applies: cited from earlier work.
For assay [2], the system named is Lactobacillus rhamnosus ATCC 7469. In words: Microbiological riboflavin determination (growth turbidity, riboflavin assay medium). To be noted: for Average value (measurement at 630 nm): number 3; for Measurement at 630 nm: single well. Type of assay: cell-based. From the text:
The preparation of the microtitration plate and the determination of riboflavin was effected as in Example 1, except only that Lactobacillus rhamnosus ATCC 7469 was employed as test organism. As assay medium there was employed Difco™ riboflavin assay medium, containing cas amino acids 10.0 g/L, dextrose 20.0 g/L, sodium acetate 15.0 g/L, dipotassium hydrogen phosphate 1.0 g/L, potassium dihydrogen phosphate 1.0 g/L, L-asparagine 0.6 g/L, L-cystine 0.2 g/L, DL-tryptophane 0.2 g/L, magnesium sulfate 0.4 g/L, adenine sulfate 20.0 mg/L, guanine hydrochloride 20.0 mg/L, uracil 20.0 mg/L, xanthin 20 mg/L, iron sulfate 20.0 mg/L, manganese sulfate 20.0 mg/L, sodium chloride 20.0 mg/L, pyridoxine hydrochloride 4.0 mg/L, pyridoxal hydrochloride 4.0 mg/L, p-aminobenzoic acid 2.0 mg/L, calcium pantothenate 800 μg/L, folic acid 800 μg/L, nicotinic acid 800 μg/L, thiamine hydrochloride 400 μg/L, biotin 1.0 μg/L. The storage medium additionally contained 200 mM trehalose.

The mark [3] stands for this setting: riboflavin standard 0.1 mg/100 g.
Setting [4] is: riboflavin standard 0.2 mg/100 g.
The mark [5] stands for this setting: riboflavin standard 0.3 mg/100 g.
The mark [6] stands for this setting: riboflavin standard 0.4 mg/100 g.
The mark [7] stands for this setting: riboflavin standard 0.5 mg/100 g.

Several values for one entry are separate records, joined by “and”; a condition that tells them apart may be missing. Equal entries are not always repeated.

As for Niacytine, the “Consumption by the test organism” value in assay [1] was “not consumed”.
For the molecule `Cc1cc2nc3c(=O)[nH]c(=O)nc-3n(C[C@H](O)[C@H](O)[C@H](O)CO)c2cc1C` [B2 Riboflavin, riboflavin], the “Average value (measurement at 630 nm)” value is given as 0.204 in assay [2] (setting [3]); 0.398 in assay [2] (setting [4]); 0.623 in assay [2] (setting [5]); 0.759 in assay [2] (setting [6]); 0.88 in assay [2] (setting [7]). The “Measurement at 630 nm” value was 0.196 and 0.209 and 0.206 in assay [2] (setting [3]); 0.404 and 0.408 and 0.383 in assay [2] (setting [4]); 0.624 and 0.616 and 0.628 in assay [2] (setting [5]); 0.752 and 0.755 and 0.771 in assay [2] (setting [6]); 0.855 and 0.886 and 0.9 in assay [2] (setting [7]).
